Data from patent US20220220128A1, “HETEROCYCLIC COMPOUNDS AS KINASE INHIBITORS, COMPOSITIONS COMPRISING THE HETEROCYCLIC COMPOUND, AND METHODS OF USE THEREOF” (JS Innopharm (Shanghai) Ltd, priority 2019, published 2022).

Assays:
human RET kinase = target: T1, human RET kinase (Homo sapiens, UniProt P07949); assay: RET Kinase Assay (LanthaScreen TR-FRET enzymatic assay); assay type: biochemical; conditions: 7 nM RET, 23 μM ATP
T1 construct: purchased Carna 08-159
Procedure, shortened: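 TR-FRET enzymatic read-out using 23 μM ATP, 3 μM FAM-P2 substrate and 7 nM human RET, after 15-min compound pretreatment at room temperature and a 1 h reaction at 28° C in HEPES pH 7.5 buffer. Percent of DMSO control fitted to nonlinear sigmoid curves for IC50.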

BAF3-KIF5B-RET cells = target: T2, BAF3-KIF5B-RET cells (Homo sapiens, UniProt P07949); assay: BAF3-KIF5B-RET Cell proliferation assay (CellTiter-Glo, 72 hours); assay type: cell-based; conditions: growth inhibition, read-out: BA/F3-KIF5B-RET Cellular activity
T2 construct: fused on or other part: P33176 (Kinesin-1 heavy chain)
T2 sequence (P07949 whole entry, change not shown, the tested form may be a part): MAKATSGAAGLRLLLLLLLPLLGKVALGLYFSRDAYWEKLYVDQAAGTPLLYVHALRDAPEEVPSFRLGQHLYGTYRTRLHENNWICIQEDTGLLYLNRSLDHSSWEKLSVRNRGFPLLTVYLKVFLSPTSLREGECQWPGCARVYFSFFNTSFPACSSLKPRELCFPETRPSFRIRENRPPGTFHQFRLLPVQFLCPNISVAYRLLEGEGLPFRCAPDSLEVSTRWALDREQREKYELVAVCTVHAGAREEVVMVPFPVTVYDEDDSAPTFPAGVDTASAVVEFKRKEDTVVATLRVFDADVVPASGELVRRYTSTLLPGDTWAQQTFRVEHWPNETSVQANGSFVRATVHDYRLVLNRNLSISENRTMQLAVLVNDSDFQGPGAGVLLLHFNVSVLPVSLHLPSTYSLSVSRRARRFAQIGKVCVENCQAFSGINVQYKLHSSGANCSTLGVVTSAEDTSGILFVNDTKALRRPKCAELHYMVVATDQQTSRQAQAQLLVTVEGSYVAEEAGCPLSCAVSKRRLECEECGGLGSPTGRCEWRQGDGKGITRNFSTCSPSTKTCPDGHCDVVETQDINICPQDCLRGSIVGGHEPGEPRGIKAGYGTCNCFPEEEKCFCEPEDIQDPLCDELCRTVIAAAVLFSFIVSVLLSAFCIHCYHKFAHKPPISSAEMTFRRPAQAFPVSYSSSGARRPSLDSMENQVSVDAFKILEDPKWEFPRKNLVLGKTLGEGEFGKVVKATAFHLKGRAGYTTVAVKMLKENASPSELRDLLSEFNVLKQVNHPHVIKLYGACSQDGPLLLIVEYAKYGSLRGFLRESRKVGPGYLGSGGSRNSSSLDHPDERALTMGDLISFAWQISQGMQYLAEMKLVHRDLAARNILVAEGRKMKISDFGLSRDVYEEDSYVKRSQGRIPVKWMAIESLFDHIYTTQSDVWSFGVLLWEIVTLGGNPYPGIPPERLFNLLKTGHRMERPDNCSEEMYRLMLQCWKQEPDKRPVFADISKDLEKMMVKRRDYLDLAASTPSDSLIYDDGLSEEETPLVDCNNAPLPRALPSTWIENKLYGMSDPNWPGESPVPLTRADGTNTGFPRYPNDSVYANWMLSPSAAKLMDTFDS
Procedure: Compounds disclosed herein were tested for the inhibition of RET by a cancer cell proliferation assay commonly known as CellTiter-Glo assay. In this assay, a complete media was prepared by adding 10% fetal bovine serum to RPMI-1640 medium (Life technology) for BAF3-FIF5B-RET cells. BAF3-KIF5B-RET cells were added to each of 88 wells of a 96 well plate at a seeding density of 2,000 cells/well/95 μL. The cells were allowed to attach to the plate by incubating at 37° C. for 24 hours. The compound was dissolved in DMSO (SIGMA). A solution of test compound was prepared in complete media by serial dilution to obtain the following concentrations: 20 μM, 6.67 μM, 2.22 μM, 0.74 μM, 0.25 μM, 0.082 μM, 0.027 μM, 0.0091 μM and 0.0030 μM. The test compound solution (5 μL) was added to each of 80 cell-containing wells. The final concentrations of the compound were following: 1 μM, 0.33 μM, 0.11 μM, 0.037 μM, 0.012 μM, 0.0041 μM, 0.0014 μM, 0.00046 μM and 0.00015 μM. The final concentration of DMSO is 0.1%. To the 8 remaining cell-containing wells, only complete media (containing 0.1% DMSO) was added to form a control group in order to measure maximal proliferation. To the remaining 8 empty wells, complete media was added to for a vehicle control group in order to measure background. The plates were incubated at 37° C. for 72 hours. 50 μl of CellTiter-Glo® Reagent was added to each well. Mix contents for 2 minutes on an orbital shaker to induce cell lysis. Incubate at room temperature for 10 minutes to stabilize luminescent signal. Record luminescence on Paradigm. Cell viability (CV %) was calculated relative to vehicle (DMSO) treated control wells. The IC50 was calculated using GraphPad Prism.

T1 sequence (P07949 29-1114): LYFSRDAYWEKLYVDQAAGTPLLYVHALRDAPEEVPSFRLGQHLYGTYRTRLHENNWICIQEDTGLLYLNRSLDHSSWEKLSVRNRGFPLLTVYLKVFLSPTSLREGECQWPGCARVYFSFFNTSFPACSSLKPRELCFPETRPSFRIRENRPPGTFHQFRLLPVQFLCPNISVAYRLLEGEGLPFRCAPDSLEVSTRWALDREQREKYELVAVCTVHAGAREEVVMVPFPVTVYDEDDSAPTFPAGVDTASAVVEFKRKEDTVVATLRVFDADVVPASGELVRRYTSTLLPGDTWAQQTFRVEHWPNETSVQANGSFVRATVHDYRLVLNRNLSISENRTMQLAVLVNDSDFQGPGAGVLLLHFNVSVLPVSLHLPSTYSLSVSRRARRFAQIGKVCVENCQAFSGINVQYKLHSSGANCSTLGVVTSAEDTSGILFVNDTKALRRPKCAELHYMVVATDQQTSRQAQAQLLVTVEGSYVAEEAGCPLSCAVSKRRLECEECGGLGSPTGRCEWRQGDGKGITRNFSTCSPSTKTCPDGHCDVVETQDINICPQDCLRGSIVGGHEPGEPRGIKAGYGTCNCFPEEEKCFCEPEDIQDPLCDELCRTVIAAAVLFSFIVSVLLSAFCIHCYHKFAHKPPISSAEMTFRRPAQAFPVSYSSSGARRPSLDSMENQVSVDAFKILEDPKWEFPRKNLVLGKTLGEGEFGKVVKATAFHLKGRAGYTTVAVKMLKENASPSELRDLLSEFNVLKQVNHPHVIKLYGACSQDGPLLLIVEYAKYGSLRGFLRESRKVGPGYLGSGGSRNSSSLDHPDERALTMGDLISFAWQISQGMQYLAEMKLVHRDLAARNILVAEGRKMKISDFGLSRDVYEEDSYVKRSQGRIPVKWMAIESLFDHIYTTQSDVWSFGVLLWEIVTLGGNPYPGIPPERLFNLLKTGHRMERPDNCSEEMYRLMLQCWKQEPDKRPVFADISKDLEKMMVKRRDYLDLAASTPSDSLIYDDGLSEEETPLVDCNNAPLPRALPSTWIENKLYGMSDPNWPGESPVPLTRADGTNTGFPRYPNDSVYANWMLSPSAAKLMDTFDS

Row | SMILES | IC50 (human RET kinase) | GI50 (BAF3-KIF5B-RET cells)
1 | COc1ccc(CC(=O)N[C@H]2[C@@H]3CN(c4ccc(-c5cc(OCC(C)(C)O)cn6ncc(C#N)c56)cn4)C[C@@H]32)cn1 [Example 190, N-((1R,5S,6s)-3-(5-(3-cyano-6-(2-hydroxy-2-methylpropoxy)pyrazolo[1,5-a]pyridin-4-yl)pyridin-2-yl)-3-azabicyclo[3.1.0]hexan-6-yl)-2-(6-methoxypyridin-3-yl)acetamide] | 50 to 100 nM | > 100 nM
2 | CC(C)(O)COc1cc(-c2cnc(N3C4CC5CC3CC(NC=O)(C5)C4)cn2)c2c(C#N)cnn2c1 [Example 160, N-((1R,3S,5s,7s)-2-(5-(3-cyano-6-(2-hydroxy-2-methylpropoxy)pyrazolo[1,5-a]pyridin-4-yl)pyrazin-2-yl)-2-azaadamantan-5-yl)formamide] | 10 to 50 nM | > 100 nM
3 | COc1cc(C(=O)N[C@]2(C)C[C@H]3CN(c4cnc(-c5cc(-c6cnn(C)c6)cn6ncc(C#N)c56)cn4)C[C@H]3C2)ccn1 [Example 150, N-((3aR,5s,6aS)-2-(5-(3-cyano-6-(1-methyl-1H-pyrazol-4-yl)pyrazolo[1,5-a]pyridin-4-yl)pyrazin-2-yl)-5-methyloctahydrocyclopenta[c]pyrrol-5-yl)-2-methoxyisonicotinamide] | ≤ 10 nM | ≤ 10 nM
4 | CC(C)(O)COc1cc(-c2ccc(N3C[C@@H]4C[C@](C)(NC(=O)c5ncccc5Cl)C[C@@H]4C3)nc2)c2c(C#N)cnn2c1 [Example 115, 3-chloro-N-((3aR,5r,6aS)-2-(5-(3-cyano-6-(2-hydroxy-2-methylpropoxy)pyrazolo[1,5-a]pyridin-4-yl)pyridin-2-yl)-5-methyloctahydrocyclopenta[c]pyrrol-5-yl)picolinamide] | ≤ 10 nM | 10 to 50 nM
5 | COc1ccc(C(=O)N2[C@@H]3CC[C@H]2[C@H]2CN(c4ccc(-c5cc(OCC(C)(C)O)cn6ncc(C#N)c56)cn4)C[C@H]23)cn1 [Example 174, 6-(2-hydroxy-2-methylpropoxy)-4-(6-((3aR,4S,7R,7aS)-8-(6-methoxynicotinoyl)hexahydro-1H-4,7-epiminoisoindol-2(3H)-yl)pyridin-3-yl)pyrazolo[1,5-a]pyridine-3-carbonitrile] | ≤ 10 nM | 10 to 50 nM
6 | COc1cc(C(=O)NC[C@@H]2[C@H]3CN(c4ccc(-c5cc(-c6cnn(C)c6)cn6ncc(C#N)c56)cn4)C[C@@H]23)ccn1 [Example 194, N-(((1R,5S,6s)-3-(5-(3-cyano-6-(1-methyl-1H-pyrazol-4-yl)pyrazolo[1,5-a]pyridin-4-yl)pyridin-2-yl)-3-azabicyclo[3.1.0]hexan-6-yl)methyl)-2-methoxyisonicotinamide] | ≤ 10 nM | 10 to 50 nM
7 | COc1ccc(C(=O)N[C@]2(C)C[C@H]3CN(c4cnc(-c5cc(-c6cnn(C)c6)cn6ncc(C#N)c56)cn4)C[C@H]3C2)cn1 [Example 145, N-((3aR,5s,6aS)-2-(5-(3-cyano-6-(1-methyl-1H-pyrazol-4-yl)pyrazolo[1,5-a]pyridin-4-yl)pyrazin-2-yl)-5-methyloctahydrocyclopenta[c]pyrrol-5-yl)-6-methoxynicotinamide] | ≤ 10 nM | ≤ 10 nM
8 | Cn1cc(-c2cc(-c3cnc(N4C5CC6CC4CC(NC(=O)c4ncccc4Cl)(C6)C5)cn3)c3c(C#N)cnn3c2)cn1 [Example 112, 3-chloro-N-((1R,3S,5s,7s)-2-(5-(3-cyano-6-(1-methyl-1H-pyrazol-4-yl)pyrazolo[1,5-a]pyridin-4-yl)pyrazin-2-yl)-2-azaadamantan-5-yl)picolinamide] | ≤ 10 nM | ≤ 10 nM
9 | COc1ccc(CN2C[C@@H]3CN(c4cnc(-c5cc(OCC(C)(C)O)cn6ncc(C#N)c56)cn4)C[C@@H]3C2)cn1 [Example 120, 6-(2-hydroxy-2-methylpropoxy)-4-(5-((3aR,6aS)-5-((6-methoxypyridin-3-yl)methyl)hexahydropyrrolo[3,4-c]pyrrol-2(1H)-yl)pyrazin-2-yl)pyrazolo[1,5-a]pyridine-3-carbonitrile] | ≤ 10 nM | 10 to 50 nM
10 | COc1ccc(NC(=O)[C@@]2(C)C[C@H]3CN(c4ccc(-c5cc(OCC(C)(C)O)cn6ncc(C#N)c56)cn4)C[C@H]3C2)cn1 [Example 116, (3aR,5r,6aS)-2-(5-(3-cyano-6-(2-hydroxy-2-methylpropoxy)pyrazolo[1,5-a]pyridin-4-yl)pyridin-2-yl)-N-(6-methoxypyridin-3-yl)-5-methyloctahydrocyclopenta[c]pyrrole-5-carboxamide] | 10 to 50 nM | > 100 nM
11 | CC(C)(O)COc1cc(-c2ccc(N3C[C@@H]4[C@@H](CNC(=O)c5c(F)cccc5Cl)[C@@H]4C3)nc2)c2c(C#N)cnn2c1 [Example 125, 2-chloro-N-(((1R,5S,6s)-3-(5-(3-cyano-6-(2-hydroxy-2-methylpropoxy)pyrazolo[1,5-a]pyridin-4-yl)pyridin-2-yl)-3-azabicyclo[3.1.0]hexan-6-yl)methyl)-6-fluorobenzamide] | ≤ 10 nM | ≤ 10 nM
12 | CCOc1cc(-c2cnc(N3C4CC5CC3CC(NC(=O)c3ncccc3Cl)(C5)C4)cn2)c2c(C#N)cnn2c1 [Example 169, 3-chloro-N-((1R,3S,5s,7s)-2-(5-(3-cyano-6-ethoxypyrazolo[1,5-a]pyridin-4-yl)pyrazin-2-yl)-2-azaadamantan-5-yl)picolinamide] | ≤ 10 nM | ≤ 10 nM
13 | Cn1cc(-c2cc(-c3cnc(N4C[C@@H]5C[C@](C)(NC(=O)c6ncccc6Cl)C[C@@H]5C4)cn3)c3c(C#N)cnn3c2)cn1 [Example 199, 3-chloro-N-((3aR,5r,6aS)-2-(5-(3-cyano-6-(1-methyl-1H-pyrazol-4-yl)pyrazolo[1,5-a]pyridin-4-yl)pyrazin-2-yl)-5-methyloctahydrocyclopenta[c]pyrrol-5-yl)picolinamide] | ≤ 10 nM | 10 to 50 nM
14 | CC(C)(O)COc1cc(-c2cnc(N3C[C@@H]4[C@@H](CNC(=O)c5c(F)cccc5Cl)[C@@H]4C3)cn2)c2c(C#N)cnn2c1 [Example 154, 2-chloro-N-(((1R,5S,6s)-3-(5-(3-cyano-6-(2-hydroxy-2-methylpropoxy)pyrazolo[1,5-a]pyridin-4-yl)pyrazin-2-yl)-3-azabicyclo[3.1.0]hexan-6-yl)methyl)-6-fluorobenzamide] | ≤ 10 nM | 10 to 50 nM
15 | COc1ccc(NC(=O)[C@]2(C)C[C@H]3CN(c4ccc(-c5cc(-c6ccn(C)n6)cn6ncc(C#N)c56)cn4)C[C@H]3C2)cn1 [Example 113, (3aR,5s,6aS)-2-(5-(3-cyano-6-(1-methyl-1H-pyrazol-3-yl)pyrazolo[1,5-a]pyridin-4-yl)pyridin-2-yl)-N-(6-methoxypyridin-3-yl)-5-methyloctahydrocyclopenta[c]pyrrole-5-carboxamide] | ≤ 10 nM | ≤ 10 nM
16 | Cn1cc(-c2cc(-c3ccc(N4C[C@@H]5C[C@](C)(NC(=O)c6ncccc6Cl)C[C@@H]5C4)nc3)c3c(C#N)cnn3c2)cn1 [Example 173, 3-chloro-N-((3aR,5r,6aS)-2-(5-(3-cyano-6-(1-methyl-1H-pyrazol-4-yl)pyrazolo[1,5-a]pyridin-4-yl)pyridin-2-yl)-5-methyloctahydrocyclopenta[c]pyrrol-5-yl)picolinamide] | ≤ 10 nM | ≤ 10 nM
17 | Cn1cc(-c2cc(-c3cnc(N4C[C@@H]5C[C@@](C)(NC(=O)c6ccnc(C(F)(F)F)c6)C[C@@H]5C4)cn3)c3c(C#N)cnn3c2)cn1 [Example 147, N-((3aR,5s,6aS)-2-(5-(3-cyano-6-(1-methyl-1H-pyrazol-4-yl)pyrazolo[1,5-a]pyridin-4-yl)pyrazin-2-yl)-5-methyloctahydrocyclopenta[c]pyrrol-5-yl)-2-(trifluoromethyl)isonicotinamide] | ≤ 10 nM | 10 to 50 nM
18 | COc1ccc(NC(=O)C23CC4CC(C2)N(c2ccc(-c5cc(-c6cnn(C)c6)cn6ncc(C#N)c56)cn2)C(C4)C3)cn1 [Example 189, (1R,3S,5s,7s)-2-(5-(3-cyano-6-(1-methyl-1H-pyrazol-4-yl)pyrazolo[1,5-a]pyridin-4-yl)pyridin-2-yl)-N-(6-methoxypyridin-3-yl)-2-azaadamantane-5-carboxamide] | ≤ 10 nM | ≤ 10 nM
19 | COc1cccnc1C(=O)N[C@]1(C)C[C@H]2CN(c3cnc(-c4cc(-c5cnn(C)c5)cn5ncc(C#N)c45)cn3)C[C@H]2C1 [Example 151, N-((3aR,5s,6aS)-2-(5-(3-cyano-6-(1-methyl-1H-pyrazol-4-yl)pyrazolo[1,5-a]pyridin-4-yl)pyrazin-2-yl)-5-methyloctahydrocyclopenta[c]pyrrol-5-yl)-3-methoxypicolinamide] | ≤ 10 nM | ≤ 10 nM
